{"source": "patent US8263401B2", "about": "“Adenylyl cyclase antibodies, compositions and uses thereof” (University of Medicine and Dentistry of New Jersey, priority 2005, dated 2012)", "key": {"[1]": {"tested_on": "conscious AC5KO and WT mice", "test": "HR and arterial pressure in conscious mice (ECG, micromanometer catheter)", "format": "in vivo, mouse", "conditions": "for decrease in HR: Ach 0.01 μg/g i.v.; for increase in HR: atropine 1 μg/g i.v.", "source_text": "In AC5KO and WT mice, four ECG wires (New England Electric Wire Corporation, Lisbon, N.H., USA) were placed subcutaneously, a silicone elastomer tubing (Cardiovascular Instrument Corp., Wakefield, Mass., USA) was inserted into the right external jugular vein and a 1.4 F micromanometer catheter (Millar Instruments, Inc., Houston, Tex., USA) was inserted into the lower abdominal aorta via the femoral artery as described previously with some modifications (Uechi, M., Asai, K., Osaka, M., Smith, A., Sato, N., Wagner, T. E., Ishikawa, Y., Hayakawa, H., Vatner, D. E., Shannon, R. P., et al. (1998), Circ. Res. 82:416-423). The ECG wires, the silicone elastomer tubing and the micromanometer catheter were tunneled subcutaneously to the back, externalized, and secured in a plastic cap. On the day of the study, each mouse was placed in the mouse holder, the jugular venous catheter was accessed and connected to a microliter syringe (Hamilton Co., Reno, Nev., USA), the 1.4 F micromanometer catheter was connected to a recorder (Dash 4u; Astro-Med, Inc., West Warwick, R.I., USA) and the ECG wires were connected to an ECG amplifier (Gould Inc., Cleveland, Ohio, USA). All experiments were recorded with animals in the conscious state. After at least 6 hours recovery from the implantation of the catheter, when a stable HR was achieved, the baseline ECG and arterial pressure (AP) were recorded for 5 min. Ach(0.05 μg/g) was then administered intravenously (i.v.), and the ECG and AP recording were repeated. A recovery period of 15 min was allowed for the HR and AP to return to baseline before administering the next drug. Baseline HR slowing was examined in response to phenylephrine (0.2 μg/g i.v.)."}, "[2]": {"tested_on": "ISO-stimulated AC activity in heart membranes", "test": "AC assay in heart membrane preparations", "format": "biochemical, mouse", "conditions": "carbachol 10 μM", "experimental": "Hearts were dissected from the mice and membrane preparations were prepared as described previously (Ishikawa, Y., Sorota, S., Kiuchi, K., Shannon, R. P., Komamura, K., Katsushika, S., Vatner, D. E., Vatner, S. F., and Homcy, C. J. (1994), J. Clin. Invest. 93:2224-2229.). Protein concentration was measured by the method of Bradford using bovine serum albumin as a standard (Bradford, M. M. (1976). Anal. Biochem. 72:248-254.). AC activity was measured as described previously (Kawabe, J., Iwami, G., Ebina, T., Ohno, S., Katada, T., Ueda, Y., Homcy, C. J., and Ishikawa, Y. (1994), J. Biol. Chem. 269:16554-16558). AC activity was linear within the incubation time up to 30 min. In order to harvest hearts for tissue cAMP content measurements, mice were allowed to acclimate to the surroundings in the laboratory for an hour before sacrifice. Freshly isolated hearts were briefly immersed in liquid nitrogen. […] The concentration of cAMP was determined with an RIA kit (PerkinElmer Life Sciences, Boston, Mass., USA).\nInventors then examined cAMP production in membranes from the hearts of AC5KO and WT at 6 months of age (FIG. 5A). The steady state AC activity was determined as the maximal capacity of cAMP production in the presence of ISO (100 μM ISO+100 μM GTP), GTPγS (100 μM) or forskolin (100 μM). […]"}, "[3]": {"tested_on": "AC5KO and WT mice", "test": "Echocardiography in anesthetized mice during i.v. ISO infusion, with co-administered Ach", "format": "in vivo, mouse", "experimental": "Adenylyl cyclase 5 knockout (AC5KO) mice (6.4±0.2 month old, n=6) and wild type (WT) mice (6.7±0.1 month old, n=6) of either sex from the same genetic background as the transgenic mice were used for the physiological studies. Measurements of LV ejection fraction (LVEF) were performed as described previously (Iwase, M., Uechi, M., Vatner, D. E., Asai, K., Shannon, R. P., Kudej, R. K., Wagner, T. E., Wight, D.C., Patrick, T. A., Ishikawa, Y., et al. (1997), Am. J. Physiol. 272:H585-589.). Briefly, after determination of body weight, mice were anesthetized with ketamine (0.065 mg/g), acepromazine (0.002 mg/g), and xylazine (0.013 mg/g) injected intraperitoneally and were allowed to breathe spontaneously. Echocardiography was performed using ultrasonography (Sequoia C256; Acuson Corporation, Mountain View, Calif., USA). A dynamically focused 15-MHz annular array transducer was applied from below, using a warmed saline bag as a standoff. M-mode echocardiographic measurements of the LV were performed at baseline and during intravenous infusion of ISO (0.005, 0.01, 0.02, and 0.04 μg/kg/min i.v. for 5 minutes each)(Abbott Laboratories Inc, North Chicago, Ill., USA) using an infusion pump (PHD 2000; Harvard Apparatus, Inc., Holliston, Mass., USA). The total amount of the infusion volume was <100 μL in each mouse. […]"}, "[4]": {"tested_on": "WT, heterozygous and AC5KO mice", "test": "Rotor rod test before and after db-cAMP injection", "format": "in vivo, mouse", "conditions": "for increase in time spent on the rod without falling: 30 minutes after db-cAMP injection; for rotor rod performance: 48 hours after injection", "experimental": "The animals were tested for motor function 30 minutes after i. p. administration of 10 mg/kg of db-cAMP. The test was repeated after 48 hours of drug administration when the drug effect was completely eliminated. Similarly, intracranial injection of db-cAMP was conducted. Before drug injection, the mice were anesthetized with ketamine. Injections of db-cAMP into the mouse brain were performed at the following coordinates: for injection into the striatum: 1.70 mm anterior to the bregma, 1.1 mm to the right of the midline, and 4.1 mm deep. Three micro-liters of drug solution was loaded into an internal cannula needle (C315×33) with cannula tubing connected to a Hamilton syringe mounted onto a microinjection pump (Harvard Apparatus, Dover, Mass.). The drug solutions were delivered at a rate of 0.5 μl/min. Normal saline was injected in a sham control.\nThe rotor rod test is the most commonly used method to evaluate the motor function in rodents^106 but other methods are also available^107 to reinforce the findings of the rotor rod test. Such tests include rearing test, spontaneous movement study and pole test. The first test examines the frequency of vertical movements of mice and the second examines that of horizontal movements. Thus, spontaneous activity was determined both horizontally (locomotion) and vertically (rearings). The last test, the pole test, examines the degree of bradykinesia. In this test, mice were placed head upward on the top of a rough-surfaced pole. The time until they turned downward (Tturn) and the time until they climbed down to the floor were measured (TLA). Mice were placed in a cage and their movements were videotaped for analysis. Thus, spontaneous movements as an index of motor function were evaluated. Most important, these tests were used to evaluate the recovery of motor function upon cAMP administration and/or adenovirus-mediated gene transfer of AC5 in additional studies. The preliminary data were obtained from littermates of AC5KO, and WT males.\nThe inventors examined whether the locomotor activity of the AC5KO mouse was impaired compared to a normal mouse. At a glance, the AC5KO mice appeared normal, i.e., they were not catatonic or rigid. […] Inventors analyzed them with a rotor rod test in which mice were put on a rotor rod as shown below. In this task, animals had to make continuous adjustment in balance and posture to remain upright on a rod. The time that mice spent on the accelerating rotor-rod without falling was measured. The rod increased from 3 rpm to 30 rpm during each 5-min trial. […] At the 5th trial, there was a small, but significant decrease in their performance in heterozygous mice."}, "[5]": {"tested_on": "primary cultured striatal neurons", "test": "cAMP accumulation in primary cultured striatal neurons", "format": "cell-based, mouse", "conditions": "neuronal cells from WT mice; forskolin 50 micro M, dopamine 100 micro M (FIG. 9)", "experimental": "Reaction with various agonists in the presence of a phosphodiesterase inhibitor proceed for 10 minutes and are stopped by the addition of ice-cold 2.5% perchloric acid, followed by sonication and centrifugation. Pellets are dissolved in 0.1 N NaOH for protein measurements and the supernatants are subject to cAMP assay by radioimmunoassay after neutralization. To examine whether AC5 plays a major role in regulating cAMP production, receptor-stimulated cAMP production and its effect in the striatum was measured. The rationale for this study is as follows. Changes in cAMP signal upon receptor stimulation can be easily determined by measuring AC activity in intact neuronal cells because the striatal membrane preparations present a few problems. Determination of basal, GTPγS— and forskolin-stimulated AC activity may be readily done while receptor-regulated AC activity, both stimulatory and inhibitory, is not easy in the striatum. This is, at least partially, due to less abundant receptor expression and the disruption of the receptor/G protein/AC coupling during the process of membrane homogenization of the striatum. Therefore, the effect of receptor stimulation and its sequential changes in AC activity and further downstream events including the process of phosphorylation/dephosphorylation may be best examined using cultured cells or even the whole body. […]"}}, "data": [{"smiles": "CC(=O)OCC[N+](C)(C)C", "note": "[Ach, acetylcholine]", "values": [{"measurement": "decrease in HR", "setting": "[1]; conscious AC5KO", "value": 7.5, "unit": "%"}, {"measurement": "decrease in HR", "setting": "[1]; conscious WT", "value": 22, "unit": "%"}]}, {"smiles": "C[N+](C)(C)CCOC(N)=O", "note": "[Carbachol]", "values": [{"measurement": "inhibition of ISO-stimulated AC activity", "setting": "[2]; AC5KO heart membranes", "value": "did not inhibit"}, {"measurement": "decrease of ISO-stimulated AC activity", "setting": "[2]; WT heart membranes", "value": "21±3.4", "unit": "%"}]}, {"smiles": "CC(C)NCC(O)c1ccc(O)c(O)c1", "note": "(stereo not shown) [ISO]", "values": [{"measurement": "cardiac responses on LVEF and fractional shortening (FS)", "setting": "[3]", "value": "attenuated"}]}, {"smiles": "CNC[C@H](O)c1cccc(O)c1", "note": "[Phenylephrine, phenylephrine]", "values": [{"measurement": "baroreflex mediated slowing of HR", "setting": "[1]; AC5KO compared with WT, phenylephrine 0.2 μg/g i.v.", "value": "less"}, {"measurement": "systolic arterial pressure", "setting": "[1]; both WT and AC5KO, phenylephrine 0.2 μg/g i.v.", "value": "increased systolic arterial pressure significantly"}]}, {"smiles": "CN1[C@@H]2CC[C@H]1C[C@@H](OC(=O)C(CO)c1ccccc1)C2", "note": "(stereo partly shown) [atropine]", "values": [{"measurement": "increase in HR", "setting": "[1]; AC5KO", "value": "19±7.5", "unit": "beats/min"}, {"measurement": "increase in HR", "setting": "[1]; WT", "value": "102±22.2", "unit": "beats/min"}]}, {"smiles": "CCCC(=O)Nc1ncnc2c1ncn2[C@@H]1O[C@@H]2COP(=O)(O)O[C@H]2[C@H]1OC(=O)CCC", "note": "[db-cAMP]", "values": [{"measurement": "increase in time spent on the rod without falling", "setting": "[4]; AC5KO", "value": "approximately two-fold"}, {"measurement": "rotor rod performance", "setting": "[4]; AC5KO", "value": "dropped to the basal level"}, {"measurement": "increase in time spent on the rod without falling", "setting": "[4]; WT", "value": 30, "unit": "%"}, {"measurement": "rotor rod performance", "setting": "[4]; WT", "value": "remained similar"}, {"measurement": "increase in time spent on the rod without falling", "setting": "[4]; heterozygous", "value": 25, "unit": "%"}, {"measurement": "rotor rod performance", "setting": "[4]; heterozygous", "value": "remained similar"}]}, {"smiles": "NCCc1ccc(O)c(O)c1", "note": "[dopamine]", "values": [{"measurement": "levels of cAMP compared to untreated cells", "setting": "[5]", "value": "effective at increasing the levels of cAMP significantly"}]}]}
